# Columns and labels:
# [1] = Cooling crystallization, XRPD before and after AAC; assay type: physicochemical
# Experimental: Cooling crystallizations were performed by preparing clear solutions of CBD with a maximum concentration of approximately 60 mg/mL. The solutions were slowly cooled to 0° C. and kept at this temperature for 48 hours. Precipitated solids were collected, dried under ambient conditions, and analyzed by XRPD. If no solids had precipitated, the mother liquors were allowed to slowly evaporate and the remaining solids were analyzed by XRPD. All solids were exposed to accelerated aging conditions for 48 hours and analyzed again by XRPD. Cannabidiol precipitated upon cooling from pentane and heptane. […] When no XRPD record was generated, the field is defined as “Not Applicable” (N/A).
# [2] = Crash cooling crystallization, XRPD before and after AAC; assay type: physicochemical; conditions: for Dissolved at start / Solids after T profile / Solid form by HT-XRPD Evaporation of ML Before: 50 mg/mL
# Experimental: As a variation on the above cooling crystallization experiments, several crash cooling crystallization were performed. In order to modulate the solubility of cannabidiol, crash cooling experiments were performed in solvent mixtures. Clear solutions of 50 mg/mL of cannabidiol were prepared in solvent mixtures and rapidly cooled in an ice bath. Vials were then placed at −20° C. for 48 hours. Precipitated solids and mother liquors were treated as described above for the ordinary cooling crystallization experiments. Only from heptane/pentane cooling did there result in the precipitation of a solid. […] When no XRPD record was generated, the field is defined as “Not Applicable” (N/A) in Table 29.
# [3] = Solubility of CBD in crude CBD mother liquor and heptane as a function of temperature (Crystal 16); conditions: CBD concentration of ca. 296 mg/ml (3.5 L/kg), crude CBD mother liquor
# Description: To determine an appropriate seeding temperature of CBD, a Crystal 16 instrument was employed to measure the solubility in crude CBD mother liquor, a mixture of heptane and process impurities, and pure heptane.
# [4] = Evaporative crystallization from solvent mixtures, form by HT-XRPD before and after AAC; assay type: physicochemical; conditions: Acetonitrile / Water (50/50, v/v)
# Experimental: Recrystallization experiments were conducted to screen for potential CBD polymorphs and evaluate the ability of the recrystallized CBD to expel impurities. The following recrystallization methods were undertaken: • evaporative crystallization from solvent mixtures; • antisolvent crystallization; • cooling crystallization; • single solvent drop grinding; • crystallization by crash-cooling; • vapor-diffusion-into-solution crystallization; and • crystallization by liquid diffusion. In each method, the starting material consisted of crystallized CBD of form A. Evaporative Crystallization from Solvent Mixtures
# Without wishing to be bound by theory, the general principle behind evaporative crystallization using solvent anti-solvent mixtures is that the solvent evaporates, first causing the API to precipitate to some extent, and this material then acts as a seed, when the anti-solvent is evaporated. The first evaporation step is slow and is followed by a faster final evaporation phase. All crystalline samples were Form A both before and after the solids were exposed to accelerated ageing conditions. An oil-like substance was obtained from an acetonitrile/water solvent mixture that could not be analyzed by XRPD; therefore, this sample was not exposed to accelerated aging conditions.
# [5] = Anti-solvent crystallization, solid form by HT-XRPD of precipitates and evaporated mother liquors, before and after AAC; assay type: physicochemical
# Experimental: For the anti-solvent crystallization experiments, clear solutions of CBD of approximately 60 mg/mL were prepared. Briefly, 1 volume of cannabidiol solution was added to 4 volumes of anti-solvent. If solids were precipitated, they were collected by centrifugation. The solid was analyzed by XRPD after being dried under ambient conditions and following drying under deep vacuum. The mother liquors were allowed to evaporate until completely dry and the remaining solids analyzed as well. All solids were analyzed by XRPD before and after exposure to accelerated aging conditions (40° C./75% RH) for two days.
# Solids precipitated immediately from the combination of methanol with water. To facilitate precipitation, the samples were placed at 5° C. for 24 hours. […] When no XRPD record was generated, the field is defined as “Not Applicable” (N/A).
# [6] = solvent 1,2-Dimethoxyethane, anti-solvent Decane
# [7] = solvent Acetone, anti-solvent 2,2,4-Trimethylepentane
# [8] = solvent Acetonitrile, anti-solvent Decane
# [9] = solvent Ethanol, anti-solvent Decane
# [10] = solvent Ethyl acetate, anti-solvent 2,2,4-Trimethylepentane
# [11] = solvent Isopropyl acetate, anti-solvent 2,2,4-Trimethylepentane
# [12] = solvent Toluene, anti-solvent Decane
compound,measurement,setting,value
"C=C(C)[C@@H]1CCC(C)=C[C@H]1c1c(O)cc(CCCCC)cc1O [CBD, (1′R,2′R)-5′-methyl-4-pentyl-2′-(prop-1-en-2-yl)-1′,2′,3′,4′-tetrahydro-[1,1′-biphenyl]-2,6-diol]",Effect of accelerated aging conditions,[1]; AAC for 48 hours,no effect on the crystallinity
same,XRPD of solids precipitated upon cooling,"[1]; from pentane and heptane, cooled to 0° C., 48 hours",identical to starting material Form A
same,Dissolved at initial T?,"[1]; solvent 1,2-Dimethoxyethane",Yes
same,Solids after T profile,"[1]; solvent 1,2-Dimethoxyethane",No
same,Dissolved at initial T?,"[1]; solvent 1,4-Dioxane",Yes
same,Solids after T profile,"[1]; solvent 1,4-Dioxane",No
same,Dissolved at initial T?,"[1]; solvent 2,2,4-Trimethylpentane",No
same,Solids after T profile,"[1]; solvent 2,2,4-Trimethylpentane",No
same,Dissolved at initial T?,[1]; solvent Acetone,Yes
same,Form by HT-XRPD Dry solids,[1]; solvent Acetone,Oily
same,Solids after T profile,[1]; solvent Acetone,No
same,Dissolved at initial T?,[1]; solvent Acetonitrile,Yes
same,Form by HT-XRPD Dry solids,[1]; solvent Acetonitrile,Oily
same,Solids after T profile,[1]; solvent Acetonitrile,No
same,Dissolved at initial T?,[1]; solvent Chloroform,Yes
same,Form by HT-XRPD Dry solids,[1]; solvent Chloroform,Oily
same,Solids after T profile,[1]; solvent Chloroform,No
same,Dissolved at initial T?,[1]; solvent Cyclohexane,Yes
same,Solids after T profile,[1]; solvent Cyclohexane,No
same,Dissolved at initial T?,[1]; solvent Diethylene glycol,Yes
same,Form by HT-XRPD Dry solids,[1]; solvent Diethylene glycol,Oily
same,Solids after T profile,[1]; solvent Diethylene glycol,No
same,Dissolved at initial T?,[1]; solvent Ethanol,Yes
same,Solids after T profile,[1]; solvent Ethanol,No
same,Dissolved at initial T?,[1]; solvent Ethyl acetate,Yes
same,Form by HT-XRPD Dry solids,[1]; solvent Ethyl acetate,Oily
same,Solids after T profile,[1]; solvent Ethyl acetate,No
same,Dissolved at initial T?,[1]; solvent Heptane,Yes
same,Form by HT-XRPD Dry solids,[1]; solvent Heptane,Oily
same,Solids after T profile,[1]; solvent Heptane,No
same,Dissolved at initial T?,[1]; solvent Hexane,No
same,Solids after T profile,[1]; solvent Hexane,Yes
same,Dissolved at initial T?,[1]; solvent Pentane,No
same,Solids after T profile,[1]; solvent Pentane,Yes
same,Dissolved at initial T?,[1]; solvent Tetrahydrofuran,Yes
same,Form by HT-XRPD Dry solids,[1]; solvent Tetrahydrofuran,Oily
same,Solids after T profile,[1]; solvent Tetrahydrofuran,No
same,Dissolved at initial T?,[1]; solvent Water,No
same,Form by HT-XRPD Dry solids,[1]; solvent Water,Low yield
same,Solids after T profile,[1]; solvent Water,No
same,Dissolved at start,"[2]; 1,4-Dioxane/Water (80/20)",Yes
same,Solids after T profile,"[2]; 1,4-Dioxane/Water (80/20)",No
same,Effect of accelerated aging conditions,[2]; 40° C./75% RH for two days,no effect on the physical appearance
same,Dissolved at start,"[2]; Acetone/2,2,4-Trimethylpentane",Yes
same,Solids after T profile,"[2]; Acetone/2,2,4-Trimethylpentane",No
same,Dissolved at start,[2]; Acetone/Water (80/20),Yes
same,Solid form by HT-XRPD Evaporation of ML Before,[2]; Acetone/Water (80/20),Oily
same,Solids after T profile,[2]; Acetone/Water (80/20),No
same,Dissolved at start,[2]; Acetonitrile/Water (80/20),Yes
same,Solids after T profile,[2]; Acetonitrile/Water (80/20),No
same,Dissolved at start,[2]; Chloroform/Hexane (50/50),Yes
same,Solids after T profile,[2]; Chloroform/Hexane (50/50),No
same,Dissolved at start,"[2]; Ethanol/2,2,4-Trimethylpentane",Yes
same,Solids after T profile,"[2]; Ethanol/2,2,4-Trimethylpentane",No
same,Dissolved at start,[2]; Ethyl formate/Decane,Yes
same,Solid form by HT-XRPD Evaporation of ML Before,[2]; Ethyl formate/Decane,Oily
same,Solids after T profile,[2]; Ethyl formate/Decane,No
same,Dissolved at start,[2]; Heptane/Pentane (50/50),Yes
same,Solids after T profile,[2]; Heptane/Pentane (50/50),Yes
same,Dissolved at start,[2]; Isopropanol/Decane (50/50),Yes
same,Solids after T profile,[2]; Isopropanol/Decane (50/50),No
same,Dissolved at start,[2]; Tetrahydrofuran/Water (80/20),Yes
same,Solid form by HT-XRPD Evaporation of ML Before,[2]; Tetrahydrofuran/Water (80/20),Oily
same,Solids after T profile,[2]; Tetrahydrofuran/Water (80/20),No
same,Polymorphic form of precipitated solid,"[2]; heptane/pentane, crash cooling, −20° C. for 48 hours",same polymorphic form as the starting material Form A
same,solubility temperature of CBD,[3],29-30 °C
same,Form by HT-XRPD Before AAC,[4],Oily
same,Solid form by HT-XRPD Ambient After AAC,"[5]; Dichloromethane / 2,2,4-Trimethylepentane, AS:S ratio 4:1",A low yield
same,AS:S ratio 4:1 Precipitation?,[5]; [6],No
same,Form (evap. ML),[5]; [6],Oily
same,AS:S ratio 4:1 Precipitation?,"[5]; solvent 1,2-Dimethoxyethane, anti-solvent Water",No
same,AS:S ratio 4:1 Precipitation?,"[5]; solvent 1,4-Dioxane, anti-solvent 2,2,4-Trimethylepentane",No
same,AS:S ratio 4:1 Precipitation?,"[5]; solvent 1,4-Dioxane, anti-solvent Water",No
same,AS:S ratio 4:1 Precipitation?,"[5]; solvent 2-Butanone, anti-solvent Water",No
same,AS:S ratio 4:1 Precipitation?,[5]; [7],No
same,Form (evap. ML),[5]; [7],Oily
same,AS:S ratio 4:1 Precipitation?,[5]; [8],No
same,Form (evap. ML),[5]; [8],Oily
same,AS:S ratio 4:1 Precipitation?,"[5]; solvent Dichloromethane, anti-solvent 2,2,4-Trimethylepentane",No
same,AS:S ratio 4:1 Precipitation?,[5]; [9],No
same,Form (evap. ML),[5]; [9],Oily
same,AS:S ratio 4:1 Precipitation?,[5]; [10],No
same,Form (evap. ML),[5]; [10],A low
same,Form (evap. ML) after AAC,[5]; [10],A low
same,AS:S ratio 4:1 Precipitation?,[5]; [11],No
same,Form (evap. ML),[5]; [11],Oily
same,AS:S ratio 4:1 Precipitation?,"[5]; solvent Methanol, anti-solvent Water",Yes
same,AS:S ratio 4:1 Precipitation?,"[5]; solvent Tetrahydrofuran, anti-solvent Decane",No
same,AS:S ratio 4:1 Precipitation?,"[5]; solvent Tetrahydrofuran, anti-solvent Water",No
same,AS:S ratio 4:1 Precipitation?,[5]; [12],No
same,Form (evap. ML),[5]; [12],Oily

# — patent US12144795B2, “Cannabidiol compositions having modified cannabinoid profiles” (priority 2018, dated 2024)
